Values of other authors, collected in PMC11247654 (ACS Medicinal Chemistry Letters, 2024).

Assays:
[1] = neutropenic mouse thigh infection assay

Leu10-isobactin A
In vitro activity against MRSA (MRSA): 0.5 µg/mL | In vivo activity (active dose) [1]: 3 to 10 mg/kg
